Measured values taken from patent publication US9734575B2, “Method for assessing cell aging” (CHRONOS THERAPEUTICS LIMITED, priority 2013, dated 2017).

Tested on: AM134bus-5 mutant C. elegans
Test: FUDR treatment (transfer and topical) to prevent second generation progeny in synchronised worm populations on multi-well plates
Type: in vivo, Caenorhabditis elegans
Protocol: Topical and transfer methods of FUDR application were compared and the optimal concentration of the FUDR on 24 well, 12 well and 6 well plates, assessed.
AM134bus-5 and bus-8 drug sensitive worms were synchronized by bleaching and then plated onto multi-well plates and allowed to develop to adulthood. The adults in half of the wells were transferred to a separate well which had been soaked with varying amounts of FUDR solution using M9 buffer. The remaining wells were treated topically with FUDR.
The cultures were then regularly imaged by bright field microscopy and fed with OP50 when necessary.

O=c1[nH]c(=O)n([C@H]2C[C@H](O)[C@@H](CO)O2)cc1F [FUDR, 2′-Deoxy-5-fluorouridine]
progeny after 11 days (6 well plates, FUDR 2 μg/ml (25 μl of 10 mg/ml to 5 ml NGM), topical and transfer): no progeny can be observed
lowest effective dose at preventing the development of progeny (6 well plates, volume of 10 mg/ml FUDR to 5 ml of NGM, 1, 5, 10, 25 and 50 μl tested): 25 µL
optimal addition of 10 mg/ml FUDR per well for preventing progeny worms from developing (12 well plate (1.7 ug/ml in 2.5 ml NGM)): 0.015 mL
progeny after 11 days (12 well plates, FUDR 1.7 μg/ml (15 μl of 10 mg/ml to 2.5 ml NGM), topical application): no progeny can be observed
lowest effective dose at preventing the development of progeny (12 well plates, volume of 10 mg/ml FUDR to 2.5 ml of NGM, 1, 5, 10, 15 and 20 μl tested): 15 µL
progeny after 11 days (24 well plates, FUDR 2 μg/ml (5 μl of 10 mg/ml to 1 ml NGM), topical and transfer method): progeny can be observed
